Measured values from publication PMC7013301 (Evidence-based Complementary and Alternative Medicine : eCAM, 2020).
Like-named read-outs stand apart in the source and are kept apart here. No end group written: not given here.

Assays:
C57BL/6 mice = assay: CRF-induced delayed gastric emptying of solid meal in mice; type: in vivo; conditions: CRF ICV 0.3 and 1.0 μg/mouse, vs vehicle
Procedure: Seven-week-old male C57BL/6 mice (weighing 20–27 g) were purchased from Charles River Laboratories (Tokyo, Japan). Five mice were housed in a plastic cage (230 × 310 × 155 mm) with bedding materials and acclimated for a week in a controlled environment (20–26°C, 30–70% humidity) under a 12-hour light/dark cycle with free access to standard chow and water. This study was approved by and conducted according to the guidelines of the experimental animal ethics committees of Tsumura & Co. (Tokyo, Japan; Permit No. 14-094-1).
BGH was manufactured by Tsumura & Co., complying with the quality standards authorized in the Japanese Pharmacopoeia, which was published under the authority of the Japanese Ministry of Health, Labour and Welfare. […]
Solid gastric emptying was evaluated using a test meal containing 20 g of ground meal and 40.61 mL of distilled water. […] The gastric emptying of solid meal was calculated using the equation below: […]

human CRF2 receptor = molecular target: T1, human CRF2 receptor (Homo sapiens, UniProt Q13324); assay: Antagonistic activity against CRF2 receptor, CRF-induced cAMP production (HTRF) in HEK-293 cells; type: cell-based
T1 construct: host or cells: HEK-293
T1 sequence (Q13324 1-411): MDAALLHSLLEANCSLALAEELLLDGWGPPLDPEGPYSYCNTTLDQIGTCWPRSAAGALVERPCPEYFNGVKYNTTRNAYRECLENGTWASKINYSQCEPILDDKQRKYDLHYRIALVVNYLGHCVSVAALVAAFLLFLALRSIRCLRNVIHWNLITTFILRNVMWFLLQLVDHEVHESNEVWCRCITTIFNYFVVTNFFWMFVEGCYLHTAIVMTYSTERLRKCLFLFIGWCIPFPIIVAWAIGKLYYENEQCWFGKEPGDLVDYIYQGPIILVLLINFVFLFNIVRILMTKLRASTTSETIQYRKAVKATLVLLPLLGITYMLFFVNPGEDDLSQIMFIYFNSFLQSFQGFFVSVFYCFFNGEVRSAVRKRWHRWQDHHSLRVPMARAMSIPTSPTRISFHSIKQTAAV
Procedure: (§1) Assays were performed at Eurofins Discovery (MO, USA). Briefly, evaluation of the inhibitory activities against human recombinant acetylcholinesterase (AChE) expressed in HEK-293 cells was performed by preincubation with test compound and/or vehicle with 41ng/ml of enzyme for 15 minutes at 25°C in phosphate buffer pH 7.4. After 20 minute incubation with 0.7 mM acetylthiocholine iodide and 0.5 mM 5,5-dithiobis-2-nitrobenzoic acid, the spectrophotometric absorbance was read at 405 nm (Catalog No. 104010). Evaluation of the antagonistic activities against human CRF2 receptor transfected in HEK-293 cells was performed by measuring the effects of the test compounds on cAMP production induced by 100 nM human CRF incubated for 30 minutes at room temperature via the HTRF detection method (Catalog No. 2086). Evaluation of the antagonistic activities against human dopamine D2, D3, and neuropeptide Y (NPY) Y2 receptors expressed in CHO-K1 cells, CHO-K1, and KAN-TS cells, respectively, was performed by preincubation of the test compounds and/or vehicle with the membrane proteins (0.1, 0.04, 0.04 mg/ml, respectively) and GDP (10, 1, 0.001 mM) in 20 mM HEPES, pH 7.4, 100 mM NaCl, 10 mM MgCl2, 1 mM DTT, and 1 mM EDTA for 20 minutes at 25°C, and SPA beads are then added for another 60 minutes at 30°C. The reaction was initiated by 0.3 nM [^35S]GTPγS for an additional incubation period (15, 30, 30 minute). Inhibition on increase of [^35S]GTPS binding response induced by dopamine (10, 0.03 mM) or 3 nM human NPY was assessed as receptor antagonist activities of test compounds (Catalog No. 310200, 310400, 332520). Evaluation of the antagonistic activities of shogaol and gingerol against human […] NPY Y2 receptor expressed in RBL cells was performed by measuring the effects of the test compounds on calcium flux induced by 15 nM human NPY (Catalog No. 4287). A concentration-response curve was generated to calculate IC50 values.

[1] = molecular target: T2, human dopamine D2 receptor (Homo sapiens, UniProt P14416); assay: Antagonistic activity against dopamine D2 receptor, [35S]GTPγS binding, CHO-K1 membranes; type: biochemical
T2 construct: host or cells: CHO-K1 (membranes)
Procedure: as §1

[2] = molecular target: T3, human dopamine D3 receptor (Homo sapiens, UniProt P35462); assay: Antagonistic activity against dopamine D3 receptor, [35S]GTPγS binding, CHO-K1 membranes; type: biochemical
T3 construct: host or cells: CHO-K1 (membranes)
Procedure: as §1

[3] = molecular target: T4, human neuropeptide Y (NPY) Y2 receptor (Homo sapiens, UniProt P49146); assay: Antagonistic activity against NPY Y2 receptor, [35S]GTPγS binding, KAN-TS membranes; type: biochemical
T4 construct: host or cells: KAN-TS (membranes)
T4 sequence (P49146 1-381): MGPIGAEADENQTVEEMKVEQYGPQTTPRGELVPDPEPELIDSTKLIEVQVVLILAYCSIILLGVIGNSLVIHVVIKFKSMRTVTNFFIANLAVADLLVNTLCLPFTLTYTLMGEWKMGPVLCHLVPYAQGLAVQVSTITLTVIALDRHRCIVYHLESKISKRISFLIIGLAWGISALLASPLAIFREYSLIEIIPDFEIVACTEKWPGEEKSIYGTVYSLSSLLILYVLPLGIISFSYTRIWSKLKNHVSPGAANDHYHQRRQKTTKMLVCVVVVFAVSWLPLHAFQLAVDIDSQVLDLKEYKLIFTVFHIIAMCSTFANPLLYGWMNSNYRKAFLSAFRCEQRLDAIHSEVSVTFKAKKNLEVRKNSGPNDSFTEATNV
Procedure: as §1

AChE = conditions: cited from earlier work
[4] = cited from earlier work
[5] = molecular target: T5, human recombinant acetylcholinesterase (AChE) (Homo sapiens, UniProt P22303); assay: Inhibition of recombinant acetylcholinesterase, spectrophotometric (acetylthiocholine/DTNB); type: biochemical; conditions: pH 7.4, 25°C
T5 construct: purchased Eurofins Discovery 104010; host or cells: HEK-293
Procedure: as §1

human NPY Y2 receptor = molecular target: T6, human NPY Y2 receptor (Homo sapiens, UniProt P49146); assay: Antagonistic activity of shogaol and gingerol against NPY Y2 receptor, calcium flux in RBL cells; type: cell-based; conditions: calcium flux induced by 15 nM human NPY
T6 construct: host or cells: RBL
T6 sequence (P49146 1-381): T4 sequence (P49146 1-381)
Procedure: as §1

[6] = cAMP production induced by 100 nM human CRF, HEK-293, read-out: IC50 value CRF2
[7] = inhibition of dopamine-induced [35S]GTPγS binding, read-out: IC50 value D2
[8] = inhibition of dopamine-induced [35S]GTPγS binding, read-out: IC50 value D3
[9] = reported value from previous study (*) ref 23

T5 sequence (P22303 32-614): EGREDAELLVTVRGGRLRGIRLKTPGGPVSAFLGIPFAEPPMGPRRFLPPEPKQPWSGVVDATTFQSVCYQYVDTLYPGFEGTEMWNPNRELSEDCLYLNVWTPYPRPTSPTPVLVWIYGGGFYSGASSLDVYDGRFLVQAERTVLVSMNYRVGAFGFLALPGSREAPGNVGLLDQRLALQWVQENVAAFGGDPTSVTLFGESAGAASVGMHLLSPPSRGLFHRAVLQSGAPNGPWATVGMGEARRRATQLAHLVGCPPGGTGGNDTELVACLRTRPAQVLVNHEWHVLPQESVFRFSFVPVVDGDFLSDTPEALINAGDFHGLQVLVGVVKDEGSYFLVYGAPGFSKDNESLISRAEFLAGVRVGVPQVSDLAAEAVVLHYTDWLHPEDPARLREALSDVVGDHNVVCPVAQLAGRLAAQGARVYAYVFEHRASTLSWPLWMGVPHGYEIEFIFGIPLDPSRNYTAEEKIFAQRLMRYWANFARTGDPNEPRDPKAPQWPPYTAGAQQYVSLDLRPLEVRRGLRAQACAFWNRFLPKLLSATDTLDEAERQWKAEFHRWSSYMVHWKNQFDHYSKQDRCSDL
T3 sequence (P35462 whole entry): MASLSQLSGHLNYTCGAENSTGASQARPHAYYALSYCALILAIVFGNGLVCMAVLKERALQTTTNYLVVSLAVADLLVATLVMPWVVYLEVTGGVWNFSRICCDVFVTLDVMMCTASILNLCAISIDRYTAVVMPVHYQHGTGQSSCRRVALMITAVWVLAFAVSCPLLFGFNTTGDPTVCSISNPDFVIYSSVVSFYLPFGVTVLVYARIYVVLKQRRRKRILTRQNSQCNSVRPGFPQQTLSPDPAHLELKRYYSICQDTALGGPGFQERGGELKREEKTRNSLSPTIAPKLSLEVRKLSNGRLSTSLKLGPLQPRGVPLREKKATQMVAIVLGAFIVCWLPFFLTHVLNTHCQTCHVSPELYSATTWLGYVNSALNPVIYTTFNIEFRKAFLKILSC
T2 sequence (P14416 whole entry): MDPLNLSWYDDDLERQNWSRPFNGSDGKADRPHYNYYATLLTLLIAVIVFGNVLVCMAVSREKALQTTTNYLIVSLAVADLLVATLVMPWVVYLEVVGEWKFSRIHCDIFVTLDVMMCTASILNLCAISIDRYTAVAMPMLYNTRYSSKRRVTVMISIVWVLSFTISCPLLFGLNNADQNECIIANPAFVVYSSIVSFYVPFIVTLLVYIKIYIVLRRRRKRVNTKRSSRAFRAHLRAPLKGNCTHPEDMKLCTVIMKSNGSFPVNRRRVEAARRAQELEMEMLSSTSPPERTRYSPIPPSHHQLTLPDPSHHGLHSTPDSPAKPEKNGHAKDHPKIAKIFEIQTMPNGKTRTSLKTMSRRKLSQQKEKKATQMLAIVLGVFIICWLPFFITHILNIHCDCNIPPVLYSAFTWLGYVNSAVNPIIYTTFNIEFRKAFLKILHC

Compound	IC50 (human CRF2 receptor; [6])	IC50 [5]	IC50 [1, 7]	IC50 [2, 8]	IC50 (human NPY Y2 receptor)	IC50 (human CRF2 receptor)	IC50 [3]	other results
CRF: Stress hormone corticotropin-releasing factor (4136-s; Peptide Institute), injected ICV to induce delayed gastric emptying (SEEPPISLDLTFHLLREVLEMARAEQLAQQAHSNRKLMEII; ends and bridges not checked; UniProt P06850 154-194, looked up)	–	–	–	–	–	–	–	Gastric emptying rate of solid test meal (2 hours) after CRF (C57BL/6 mice): significantly decreased
O=c1cc(-c2ccc(O)c(O)c2)oc2cc(O)cc(O)c12 [Luteolin]	> 100 µM	–	–	–	–	–	–	IC50 [1]: 48.9 µM; IC50 [2]: > 100 µM; IC50 ([3]; inhibition of [35S]GTPγS binding induced by 3 nM human NPY, KAN-TS cells, read-out: IC50 value NPY Y2): 8.39 µM; IC50 (AChE; reported value from previous study (**) ref 24): 32.5 µM; Blood-brain barrier passage ([4]; in vivo): capable of crossing blood-brain barrier
CCCCCCC/C=C/C(=O)CCc1ccc(O)c(OC)c1 [8-Shogaol]	> 100 µM	18.9 µM	7.22 µM	11.2 µM	> 100 µM	–	–	Detection in the brain ([4]; after oral administration of ginger extract ref 34): not detected in the brain
O=C(/C=C/c1ccc(O)c(O)c1)O[C@H](Cc1ccc(O)c(O)c1)C(=O)O [Rosmarinic acid]	–	> 100 µM	> 100 µM	0.54 µM	–	> 100 µM	> 100 µM	Blood-brain barrier permeability [4]: extremely low
C=CCc1ccc(O)c(-c2cc(CC=C)ccc2O)c1 [Magnolol]	–	–	–	–	–	32 µM	> 100 µM	IC50 [1]: 43.1 µM; IC50 [2]: 50.1 µM; IC50 (AChE; [9]): 69 µM; Blood-brain barrier passage [4]: capable of traversing the blood-brain barrier
C=CCc1ccc(O)c(-c2ccc(O)c(CC=C)c2)c1 [Honokiol]	–	–	36.2 µM	52.7 µM	–	40 µM	> 100 µM	IC50 (AChE; [9]): 57 µM; Blood-brain barrier passage [4]: capable of traversing the blood-brain barrier
CCCCCCCCC[C@H](O)CC(=O)CCc1ccc(O)c(OC)c1 [10-Gingerol]	> 100 µM	25.9 µM	> 100 µM	> 100 µM	> 100 µM	–	–	–
CCCCC/C=C/C(=O)CCc1ccc(O)c(OC)c1 [6-Shogaol]	> 100 µM	> 100 µM	> 100 µM	11.3 µM	> 100 µM	–	–	–
